Data set [1] is described as follows: Cytotoxicity against human A-431 cells measured after 24 hrs by MTT assay. The data set is classed as toxicity, cell-based.
Data set [2] relates to A-431. Kind of data set: Antimigratory activity in human A-431 cells assessed as inhibition of scratch at 50 uM measured after 24 hrs by Wound healing assay. The data set is classed as functional.
A short description of data set [3]: Cytotoxicity against mouse Neuro2a cells measured after 24 hrs by MTT assay. The data set is classed as toxicity, cell-based, N2a. Background: Formazan colour is commonly taken as a measure of viable cells.
The test system of data set [4] is A-431. Kind of data set: Inhibition of cell invasion in human A-431 cells assessed as inhibition rate at 50 uM incubated for 24 hrs by crystal violet staining based transwell assay. The format is functional.
The nature of data set [5]: Cytotoxicity against human HeLa cells measured after 24 hrs by MTT assay. The data set is classed as toxicity, cell-based.
Data set [6] can be described thus: Cytotoxicity against CHO cells measured after 24 hrs by MTT assay. The data set is classed as toxicity, cell-based, Cricetulus griseus. The following applies: Chinese hamster.
Data set [7] is described as follows: Cytotoxicity against rat PC-12 cells measured after 24 hrs by MTT assay. The data set is classed as toxicity, cell-based.
The subject of data set [8] is Mus musculus. Kind of data set: Effect on IL-2 expression in C57BL/6 mouse transfected with mouse B16-Luc cells assessed as serum […] level at 5 mg/kg, ip qd treated for 7 days by ELISA. The following applies: time 7.0 day. The format is functional, organism-based.
For data set [9], the system named is Mus musculus. Kind of data set: Effect on IL-2 expression in C57BL/6 mouse transfected with mouse B16-Luc cells assessed as serum IL-2 level at 5 mg/kg, ip qd treated for 7 days by ELISA. The format is functional, organism-based. The following applies: time 7.0 day. For orientation: In an ELISA, binding on a coated surface is turned into a signal by an enzyme label.

The test system of data set [10] is Mus musculus. Kind of data set: Effect on IL-2 expression in C57BL/6 mouse transfected with mouse B16-Luc cells assessed as serum IgG level at 5 mg/kg, ip qd treated for 7 days by ELISA. The format is functional, organism-based. The following applies: time 7.0 day.

Active and inactive are the calls of the source. No cut-off for these calls is given here.

Usually IC50 stands for the point on the concentration scale where inhibition reaches its midpoint. As a reminder, the inhibition is the percentage by which the read-out fell short of the control. In the case of `CCCCCCCCCCCCC/C=C/[C@@H](O)[C@H](CO[C@@H]1O[C@H](CO)[C@@H](O[C@@H]2O[C@H](CO)[C@H](O)[C@H](O[C@]3(C(=O)O)C[C@H](O)[C@@H](NC(=O)c4cccc(F)c4)[C@H]([C@H](O)[C@H](O)CO)O3)[C@H]2O)[C@H](O)[C@H]1O)NC(=O)CCCCCCCCCCCCCCCCC`, the IC50 at 24 h in data set [1], in data set [3], in data set [5], in data set [6] and in data set [7] was above 200 µM in each case. Moreover, the outcome in the data set on A-431 [2] was Active. In the data set on A-431 [4], the inhibition at 50 µM came to 27.8%.
In the case of `CCCCCCCCCCCCC/C=C/[C@@H](O)[C@H](CO[C@@H]1O[C@H](CO)[C@@H](O[C@@H]2O[C@H](CO)[C@H](O)[C@H](O[C@]3(C(=O)O)C[C@H](O)[C@@H](NC(=O)c4ccc(C=O)cc4)[C@H]([C@H](O)[C@H](O)CO)O3)[C@H]2O)[C@H](O)[C@H]1O)NC(=O)CCCCCCCCCCCCCCCCC`, the half-inhibitory concentration (IC50) at 24 h in [1], in data set [3], in data set [5], in data set [6] and in [7] was above 200 µM each time. Also, the result with A-431 [2] was Active.
With `CCCCCCCCCCCCC/C=C/[C@@H](O)[C@H](CO[C@@H]1O[C@H](CO)[C@@H](O[C@@H]2O[C@H](CO)[C@H](O)[C@H](O[C@]3(C(=O)O)C[C@H](O)[C@@H](NC(=O)c4ccncc4)[C@H]([C@H](O)[C@H](O)CO)O3)[C@H]2O)[C@H](O)[C@H]1O)NC(=O)CCCCCCCCCCCCCCCCC`, the IC50 at 24 h in data set [1], in data set [3], in data set [5], in data set [6] and in [7] was above 200 µM in each case. Also, the result with A-431 [2] was Active. In addition, in the data set on A-431 [4], the inhibition at 50 µM came to 26.2%.
For `CCCCCCCCCCCCC/C=C/[C@@H](O)[C@H](CO[C@@H]1O[C@H](CO)[C@@H](O[C@@H]2O[C@H](CO)[C@H](O)[C@H](O[C@]3(C(=O)O)C[C@H](O)[C@@H](NC(=O)CC)[C@H]([C@H](O)[C@H](O)CO)O3)[C@H]2O)[C@H](O)[C@H]1O)NC(=O)CCCCCCCCCCCCCCCCC`, the IC50 at 24 h in [1], in data set [3], in [5], in data set [6] and in [7] was above 200 µM in each case.
Consider `CCCCCCCCCCCCC/C=C/[C@@H](O)[C@H](CO[C@@H]1O[C@H](CO)[C@@H](O[C@@H]2O[C@H](CO)[C@H](O)[C@H](O[C@]3(C(=O)O)C[C@H](O)[C@@H](NC(=O)Cc4ccc(C)cc4)[C@H]([C@H](O)[C@H](O)CO)O3)[C@H]2O)[C@H](O)[C@H]1O)NC(=O)CCCCCCCCCCCCCCCCC`, for which the IC50 at 24 h in [1], in [3], in data set [5], in data set [6] and in data set [7] was above 200 µM throughout.
For the compound `CCCCCCCCCCCCC/C=C/[C@@H](O)[C@H](CO[C@@H]1O[C@H](CO)[C@@H](O[C@@H]2O[C@H](CO)[C@H](O)[C@H](O[C@]3(C(=O)O)C[C@H](O)[C@@H](NC(=O)c4cc(F)cc(F)c4)[C@H]([C@H](O)[C@H](O)CO)O3)[C@H]2O)[C@H](O)[C@H]1O)NC(=O)CCCCCCCCCCCCCCCCC`, the IC50 at 24 h in data set [1], in [3], in data set [5], in data set [6] and in data set [7] was above 200 µM each time.
`CCCCCCCCCCCCC/C=C/[C@@H](O)[C@H](CO[C@@H]1O[C@H](CO)[C@@H](O[C@@H]2O[C@H](CO)[C@H](O)[C@H](O[C@]3(C(=O)O)C[C@H](O)[C@@H](NC(C)=O)[C@H]([C@H](O)[C@H](O)CO)O3)[C@H]2O)[C@H](O)[C@H]1O)NC(=O)CCCCCCCCCCCCCCCCC`: the result in the data set with Mus musculus [8], in the data set on Mus musculus [9] and in the data set on Mus musculus [10] was inactive.

The record behind these values is ChEMBL document CHEMBL5042529, “One-Pot Enzymatic Synthesis and Biological Evaluation of Ganglioside GM3 Derivatives as Potential Cancer Immunotherapeutics” (J Med Chem, 2022).
